{
  "source": "patent US20240116889A1",
  "about": "“ANTIVIRAL COMPOUNDS AND METHODS” (priority 2019, published 2024)",
  "key": {"pdm H1N1 virus": {"test_system": "pdm H1N1 virus", "assay_type": "cell-based, influenza A virus (A/California/07/2009)", "conditions": "NPTr cells; 0.5 μM TG 30 min; […]"}, "[1]": {"test_system": "extracellular Ca^2+ influx", "experiment": "Intracellular Ca2+ monitoring assay (Fluo-8) in NPTr cells", "assay_type": "cell-based, pig", "conditions": "non-toxic doses (CPA up to 5 μM; TG 10 min)"}, "[2]": {"test_system": "2009 pandemic (pdm) H1N1 virus", "experiment": "2009 pandemic (pdm) H1N1 virus replication in Calu-3 cells (M-gene RNA, RT-qPCR)", "assay_type": "cell-based, influenza A virus"}, "A549 cells": {"test_system": "A549 cells", "experiment": "Cell viability of A549 cells (CellTiter-Glo 2.0)", "assay_type": "cell-based, human", "conditions": "RDV continuous, TG 30 min, overnight", "procedure": "(A) A549 cells were primed with indicated TG, 0.3 μM RDV or DMSO control for 30 min, washed twice with PBS and infected with 0.01 MOI of CoV OC43 for 2 h, after which cells were washed again with PBS and incubated in fresh infection media (OptiMEM supplemented with 0.1 μg/ml TPCK-trypsin for TG primed cells, or fresh media in the continuous presence of RDV. At 24, 48 and 72 hpi, viral RNA extraction was performed on collected supernatants followed by one-step reverse transcription qPCR to detect the relative copy number of hCoV OC43 replicase polyprotein lab RNA, based on relative Ct method. Indicated significance relative to corresponding RDV-treated cells based on 2-way ANOVA Tukey's multiple comparisons test. (B) As in (A), A549 cells were primed continuously with RDV, or for 30 min with indicated TG or DMSO, washed, cultured overnight and subjected to cell viability assay (CellTiter-Glo 2.0 Cell Viability Assay, Promega)."}, "SARS-CoV-2 [3]": {"test_system": "SARS-CoV-2", "experiment": "SARS-CoV-2 replication in NHBE cells (RT-qPCR of media)", "assay_type": "cell-based"}, "USSR H1N1 virus [4]": {"test_system": "USSR H1N1 virus", "assay_type": "cell-based, influenza A virus (A/USSR/77)"}, "human coronavirus OC43": {"test_system": "human coronavirus OC43", "assay_type": "cell-based", "conditions": "MRC-5 cells"}, "USSR H1N1 virus [5]": {"test_system": "USSR H1N1 virus", "assay_type": "cell-based, influenza A virus (A/USSR/77)", "conditions": "PTECs; 0.1 μM TG for 30 min"}, "SARS-CoV-2 [6]": {"test_system": "SARS-CoV-2", "experiment": "SARS-CoV-2 replication in Vero E6 cells (RT-qPCR of media)", "assay_type": "cell-based"}, "USSR H1N1 virus [7]": {"test_system": "USSR H1N1 virus", "assay_type": "cell-based, influenza A virus (A/USSR/77)", "remark": "listed apart in the source"}, "HEp2 cells": {"test_system": "HEp2 cells", "experiment": "Cell viability of HEp2 cells (CellTiter-Glo)", "assay_type": "cell-based, human", "conditions": "HEp-2 cells", "procedure": "Spun supernatants were collected to infect HEp2 cells for 24 h for immuno-detection of RSV. TG doses used to prime HEp2 cells were non-toxic. 30 min TG treated cells were rinsed, cultured overnight and subjected to cell viability assays (CellTiter-Glo® Luminescent Cell Viability Assay kit, Promega. Results are shown in FIG. 22."}, "[8]": {"test_system": "PR8 H1N1 virus (A/Puerto Rico/8/1934)", "assay_type": "in vivo, BALB/c mice"}, "DDIT3, HSPA5 and HSP90B1": {"test_system": "DDIT3, HSPA5 and HSP90B1", "assay_type": "cell-based, pig", "conditions": "NPTr cells, porcine myoblasts and NHBE cells; non-toxic TG, 30 min"}, "[9]": {"test_system": "RSV (A2 strain, ATCC VR-1540)", "experiment": "RSV production from infected HEp2 cells (immuno-detection / RT-qPCR)", "assay_type": "cell-based, human respiratory syncytial virus"}, "USSR H1N1 virus [10]": {"test_system": "USSR H1N1 virus", "experiment": "USSR H1N1 M-gene RNA in media of NPTr cells primed with stored or oil-mixed TG (RT-qPCR)", "assay_type": "cell-based, influenza A virus (A/USSR/77)", "conditions": "NPTr cells primed at 0.5 μM TG"}, "influenza A virus": {"test_system": "influenza A virus", "conditions": "MDCK cells; 0.001 μM TG over 48 h of infection; cited from earlier work"}, "RIG-I, OAS1 and PKR": {"test_system": "RIG-I, OAS1 and PKR", "assay_type": "cell-based, pig", "conditions": "NPTr cells (TG also NHBE cells and myoblasts); priming before or during infection"}, "hCoV OC43 [11]": {"test_system": "hCoV OC43", "experiment": "hCoV OC43 production in NHBE cells (RT-qPCR)", "assay_type": "cell-based, human coronavirus OC43", "conditions": "30 min pre-infection priming, 48 and 72 hpi", "procedure": "Cells were primed with TG as indicated for 30 min, washed twice with PBS and infected with hCoV OC43 at 0.01 MOI (based on FFAs) for 3 h; after which cells were again washed twice with PBS and incubated in serum-free Promocell media (supplemented with 0.1 μg/ml TPCK trypsin). Culture media were harvested at 48 and 72 hpi for viral RNA extraction followed by one-step reverse transcription qPCR to detect the relative copy number of OC43 replicase polyprotein lab RNA. Indicated significance using Tukey's multiple comparisons test and percentage viral RNA reduction relative to corresponding DMSO control."}, "hCoV OC43 [12]": {"test_system": "hCoV OC43", "experiment": "hCoV OC43 replication in A549 cells (RT-qPCR)", "assay_type": "cell-based, human coronavirus OC43"}, "[13]": {"conditions": "NPTr cells, 30 min priming, […]"}, "[14]": {"conditions": "30 min priming at doses used for infection studies"}},
  "note": "Entries after “also recorded” stand apart in the source; their conditions may differ. Read-outs that look alike come from different tables or passages of the source.",
  "data": [
    {"compound": "C/C=C(/C)C(=O)O[C@H]1C(C)=C2[C@H]([C@@H]1OC(=O)CCCCCCC)[C@@](C)(OC(C)=O)C[C@H](OC(=O)CCC)[C@@]1(O)[C@H]2OC(=O)[C@@]1(C)O", "note": "[TG, thapsigargin]", "values": [
      {"measurement": "virus production, TG before vs 6 h after infection", "setting": "pdm H1N1 virus", "result": "comparable reduction in virus production"},
      {"measurement": "extracellular Ca^2+ influx", "setting": "[1]", "result": "modest Ca^2+ influx"},
      {"measurement": "pdm 2009 H1N1, separate infection and co-infection with SARS-CoV-2", "setting": "[2]", "result": "blocked"},
      {"measurement": "cell viability", "setting": "A549 cells", "result": "no adverse effect on cell viability"},
      {"measurement": "SARS-CoV-2 replication", "setting": "SARS-CoV-2 [3]", "result": "highly inhibitory"},
      {"measurement": "progeny virus output vs DMSO control", "setting": "USSR H1N1 virus [4]", "result": "marked reduction in virus output"},
      {"measurement": "virus production, TG before vs 6 h after infection", "setting": "USSR H1N1 virus [4]; myoblasts, 0.5 μM TG 30 min, […]", "result": "comparable reduction in virus production"},
      {"measurement": "duration of the antiviral state after TG exposure", "setting": "USSR H1N1 virus [4]; myoblasts, 1.0 μM TG for 1 h", "result": "at least 24 h"},
      {"measurement": "hCoV OC43 replication / progeny production", "setting": "human coronavirus OC43; TG 0.05 or 0.5 μM 30 min pre-infection, HC pre-infection or continuous", "result": "dramatic dose-responsive reduction in coronavirus replication"},
      {"measurement": "cell loss and cytopathic effects of infected cells", "setting": "human coronavirus OC43; TG-primed", "result": "limited cell loss and little morphological change"},
      {"measurement": "duration of the antiviral state after TG exposure", "setting": "USSR H1N1 virus [5]", "result": "at least 24 h"},
      {"measurement": "SARS-CoV-2 replication", "setting": "SARS-CoV-2 [6]", "result": "lack of effectiveness"},
      {"measurement": "progeny virus output vs DMSO control", "setting": "USSR H1N1 virus [7]", "result": "marked reduction in virus output"},
      {"measurement": "virus reduction", "setting": "USSR H1N1 virus [7]; NPTr cells pre-primed with 0.1 μM TG for 30 min", "result": 82, "unit": "%"},
      {"measurement": "virus reduction", "setting": "USSR H1N1 virus [7]; NPTr cells pre-primed with 0.5 μM TG for 30 min", "result": 93, "unit": "%"},
      {"measurement": "duration of the antiviral state after TG exposure", "setting": "USSR H1N1 virus [7]; NPTr cells, 0.5 μM TG for 30 min", "result": "at least 24 h"},
      {"measurement": "IC50", "setting": "USSR H1N1 virus [7]; [13]", "result": 0.00712, "unit": "µM"},
      {"measurement": "Selectivity index (CC50/IC50)", "setting": "USSR H1N1 virus [7]; [13]", "result": 7952.21},
      {"measurement": "CC50", "setting": "HEp2 cells", "result": 90, "unit": "µM"},
      {"measurement": "body weight of surviving treated mice", "setting": "[8]; TG 30 ng by gavage daily", "result": "progressive weight gain from 9 dpi"},
      {"measurement": "PR8 virus loads in lungs vs control mice", "setting": "[8]; TG 30 ng by gavage daily, […]", "result": "significantly lower"},
      {"measurement": "gross lung pathology", "setting": "[8]; TG 30 ng by gavage daily, […]", "result": "more localised to the vicinity of virus entry site"},
      {"measurement": "survival of infected mice", "setting": "[8]; mouse, in vivo", "result": 40, "unit": "%"},
      {"measurement": "cell viability after priming", "setting": "NPTr cells; [14]", "result": "no cytotoxic effect on cell viability"},
      {"measurement": "CC50", "setting": "NPTr cells; 30 min priming, viability after 24 h", "result": 56.6, "unit": "µM"},
      {"measurement": "cell viability of primed cells, infected or uninfected", "setting": "NPTr cells; primed once with 0.5 μM TG for 30 min, over 20 h", "result": "more viable than DMSO control cells"},
      {"measurement": "expression of ER stress associated genes", "setting": "DDIT3, HSPA5 and HSP90B1", "result": "consistently elevated ER stress associated genes"},
      {"measurement": "RSV replication, priming 24 h before or 24 h post-infection", "setting": "[9]; HEp2 cells, 30 min TG priming, 72 h infection", "result": "strongly inhibited RSV replication"},
      {"measurement": "RSV production, TG priming 48 h post-infection", "setting": "[9]; HEp2 cells, 30 min priming", "result": "rapidly effective in blocking virus production at 48 h post-infection"},
      {"measurement": "duration of sustained anti-viral effect on RSV", "setting": "[9]; HEp2 cells, 30 min priming", "result": "over 48 h"},
      {"measurement": "Selectivity index", "setting": "[9]; HEp-2 cells, 3 d infection period", "result": 1346.499},
      {"measurement": "IC50", "setting": "[9]; HEp-2 cells, RSV, 3 d infection period", "result": 0.0668, "unit": "µM"},
      {"measurement": "RSV progeny virus production, viral M-gene RNA", "setting": "[9]; HEp-2 cells, TG 30 min priming, Riba continuously present, four days post-infection", "result": "superior to the continuous presence of ribavirin; also recorded: significantly inhibited"},
      {"measurement": "cell viability after priming", "setting": "NHBE cells; [14]", "result": "no cytotoxic effect on cell viability"},
      {"measurement": "cell viability on continuous exposure", "setting": "NHBE cells; continuous 5 nM TG for 24 h", "result": "no reduction in cell viability"},
      {"measurement": "CC50", "setting": "NHBE cells; read-out: cellular cytotoxicity CC50, 30 min priming, viability after 24 h", "result": 33.5, "unit": "µM"},
      {"measurement": "antiviral function after mixing TG-DMSO stock with olive oil or sesame oil", "setting": "USSR H1N1 virus [10]; 1:1 volume ratio, 24 h at room temperature", "result": "did not diminish TG antiviral function"},
      {"measurement": "antiviral activity after incubation of TG stock solution on its own", "setting": "USSR H1N1 virus [10]; 24 h at RT, relative to freshly thawed TG", "result": "some reduction in antiviral activity"},
      {"measurement": "progeny influenza virus output", "setting": "influenza A virus", "result": "increase progeny influenza virus output"},
      {"measurement": "expression of type I IFN associated genes in response to infection", "setting": "RIG-I, OAS1 and PKR", "result": "consistently increased the expression of type I IFN associated genes"},
      {"measurement": "hCoV OC43 production", "setting": "hCoV OC43 [11]", "result": "reduced hCoV OC43 production in a dose-dependent manner"},
      {"measurement": "hCoV OC43, separate infection and co-infection with USSR H1N1", "setting": "hCoV OC43 [12]", "result": "blocked"},
      {"measurement": "blocking of hCoV OC43 replication, comparison with RDV", "setting": "hCoV OC43 [12]; A549 cells, TG 30 min priming vs continuous RDV, […]", "result": "superior to remdesivir (RDV)"}
    ]}
  ]
}
